According to publication PMC9414910, “Optimized ^68Ga-Labeled Urea-Based PSMA-Targeted PET Tracers for Prostate Cancer” (Pharmaceuticals, 2022):
Blank lines part the entries; values can stand above or below the molecule they belong to.

Columns and labels:
[1] = tested on: 22Rv1 tumor-bearing mice; assay: Biodistribution in 22Rv1 tumor-bearing mice; conditions: for Uptake Blood, Mean / Uptake Bone, Mean / Uptake Heart, Mean / Uptake Kidney, Mean / Uptake Liver, Mean / Uptake Lung, Mean / Uptake Muscle, Mean / Uptake Spleen, Mean / Uptake Tumor (22Rv1), Mean: 0.74 MBq, n = 3
Experimental: (§1) The animal studies were approved by the institutional animal care and use committee of the Chinese PLA General Hospital. Healthy male ICR mice were injected with either a novel radiotracer (37 MBq in 150 μL) or saline (150 μL) for the radiotoxicity evaluation. […] Biodistribution and micro-PET studies were performed on 22Rv1 and PC-3 xenograft models, and 2-PMPA was used as the PSMA blocker (all details are shown in the Supplementary Materials).
BALB/c nude mice (male, 4-6 weeks) were inoculated subcutaneously with […]
100 mm3, the mice underwent biodistribution study and Micro-PET imaging.
The 22Rv1 tumor-bearing mice were injected with each novel radiotracer or […]
[…] Mice were sacrificed at different time points p.i. (10 min, 30 min, 60 min), tumors and interested organs were harvested, weighed and measured by a γ-counter, the results were expressed as the percentage of injected dose per gram (ID%/g).
Table S1. Uptake values for ex vivo tissues of [ 68Ga]Ga-PSMA-Q (0.74 MBq/mice) in 22Rv1 tumor-bearing mice (10, 30 and 60 min p.i., n = 3/time point).

[2] = Partition coefficient, octanol–water system; format: physicochemical; conditions: octanol–water (v/v = 1:1), n = 3
Experimental: (§2) The partition coefficient of each novel radiotracer was determined using an octanol–water system (v/v = 1:1). The in vitro stability was determined using two systems (PBS and 5% BSA). The Ki value was measured by the NAALADase assay. The 22Rv1 and PC-3 cell lines were used for the cell-binding study and establishment of the tumor-bearing model (detailed information is shown in the Supplementary Materials).
PBS) and reported as log p ± SD. […]

[3] = tested on: 22Rv1 tumors; assay: Micro-PET imaging in 22Rv1 tumor-bearing mice; format: in vivo; conditions: 60 min p.i.
Experimental: as §1
Table S9. Tumor-to-mu scle (T/M) ratio and tumor- to-kidney (T/K) rati o of radiotracers at 60 min p.i.
The Mice bearing 22Rv1 and PC-3 (n = 3/group) xenograft tumors were […]
Co-injection with 2-PMPA (50 μ g) and each novel tracer (7.4 MBq in 150 μL) was used for blocking. Then the mice were anesthetized with 3% (v/v) isoflurane and underwent Micro-PET scans with continuous 1% (v/v) isoflurane. The images were acquired at 60 min p.i.. In comparison, […]
into another group of mice (n = 3), and Micro-PET schedule was performed as […]
Imaging was performed on a Super Nova PET/CT scanner using a 100-mm-transaxial field of view for PET and 110-mm for CT.
Three-dimensional ordered-subsets expectation maximization reconstruction

[4] = tested on: 22Rv1 cells (mild PSMA+); assay: Cell uptake / binding in 22Rv1 cells; format: cell-based, human; conditions: 60 min incubation, 37 °C
Description: Cell lines were kindly provided by the stem cell bank of the Chinese Academy of Sciences. The human prostate cancer epithelial cell lines 22Rv1 (mild PSMA+) and PC-3 (with no PSMA receptor) were used to evaluate the specific cell-binding affinity of the radiotracers, and the results were expressed as percentages of injected activity, IA%/10^6.
Cell Lines and Culture Condition
Cell lines were kindly provided by the stem cell bank, the Chinese Academy of Sciences. The human prostate cancer cell lines 22Rv1 ( mild PSMA positive) and PC3 (PSMA negative) were cultured in RPMI 1640 medium or F12K medium (CORNING, America), supplemented with 10% Fetal Bovine Serum
(GIBCO, The Netherlands) and 1% penicillin-streptomycin (CORNING, America) in a humidified incubator at 37 °C under 5% CO2. Each cell line was passaged when it was at around 80-90% confluence, and harvested using trypsin-ethylenediaminetetraacetic acid (trypsin-EDTA; 0.25% trypsin, 0.02% EDTA, all from KeyGEN BioTECH).
Cells were seeded separately in 24 well plates (1 x 10^5 cells in 1 mL medium/well) and incubated overnight, the medium was changed 2 h before the experiment. For the binding experiments, cells were incubated with novel […]
min, 30 min and 60 min (6 wells/time point). After incubation, the medium was removed and the cells were washed twice with ice-cold phosphate-buffered saline (0.5 mL). Finally, the cells were lysed by NaOH (0.5 M, 0.5 mL). Coincubation of 2-(phosphonomethyl) pentane-1,5-dioic acid […]
(2-PMPA) solution (2 μg/well) and each radiotracer for 60 min was conducted as the blocking experiment. The radioactivity of cells was measured by a γ-counter. The studies were performed in triplicate and the results were reported as the percentage injected activity (IA%/10^6 cells). […]

[5] = Radiotoxicity study in male ICR mice; format: in vivo
[6] = Blood pharmacokinetics in male ICR mice; format: in vivo; conditions: 7.4 MBq i.v., two-compartment model
Experimental: Injection of novel radiotracers or [68Ga]Ga-PSMA-617 or [68Ga]Ga-PSMA-11 […]
mice (5 mice/group), and the blood sample (5 μL) of each mouse was collected by cutting down the tail end at different time points post injection. The radioactivity of blood samples were measured by a γ-counter and the pharmacokinetics data was calculated using the WinNonlin software.
Figure S3. Time-activity curves of the blood samplesafter injection of 7.4 MBq of [68Ga]Ga-PSMA-4PY (A), [68Ga]Ga-PSMA-Q (B),[68Ga]Ga-PSMA-P (C), [68Ga]Ga-PSMA-617 (D), [68Ga]Ga-PSMA-11 (E), [68Ga]Ga-PSMA-Q-1 (F), [68Ga]Ga-PSMA-Q-2 (G) and [68Ga]Ga-PSMA-Q-3 (H).
(1 picture or pasted object on this page, not shown here)

[7] = biological target: T1, Recombinant human PSMA (rhPSMA) (Homo sapiens, UniProt Q04609); assay: NAALADase assay (enzyme-based assay on rhPSMA); format: biochemical; conditions: NAAG substrate, unlabeled ligands, read-out: Ki (PSMA inhibition constant)
T1 construct: purchased R&D systems, Wiesbaden, Germany
Experimental: as §2
The PSMA-inhibitory activity of novel PSMA ligands was analyzed by performing an enzyme-based assay on rhPSMA [11].
PBS) and reported as log p ± SD.
The in vitro stability of radiotracers was determined by measuring radiochemical purity (RCP) in […] and 5% bovine serum albumin (BSA) at 37 °C at different time intervals (30 min, 60 min, 120 min) using radio-HPLC.
Recombinant human PSMA (rhPSMA, R&D systems, Wiesbaden, Germany) was diluted in assay buffer (50 mM HEPES, 0.1 M NaCl, pH 7.5) to 0.4 μg/mL. […]
250 μL of ortho-phthaldialdehyde solution (OPA, 15 mM, Sigma, Taufkirchen, Germany) was added to each vial and incubated for 3 min at room temperature. 200 μL aliquot of each vial was added into a 96 black well plate and read at excitation and emission wavelengths of 350 and 450 nm using a microplate reader. […] The data were analyzed by the one-site total binding regression algorithm of GraphPad

[8] = 60 min p.i., listed as [68Ga]Ga-PSMA-Q
[9] = biodistribution, 22Rv1 tumor-bearing mice, 60 min p.i.

T1 sequence (Q04609 whole entry): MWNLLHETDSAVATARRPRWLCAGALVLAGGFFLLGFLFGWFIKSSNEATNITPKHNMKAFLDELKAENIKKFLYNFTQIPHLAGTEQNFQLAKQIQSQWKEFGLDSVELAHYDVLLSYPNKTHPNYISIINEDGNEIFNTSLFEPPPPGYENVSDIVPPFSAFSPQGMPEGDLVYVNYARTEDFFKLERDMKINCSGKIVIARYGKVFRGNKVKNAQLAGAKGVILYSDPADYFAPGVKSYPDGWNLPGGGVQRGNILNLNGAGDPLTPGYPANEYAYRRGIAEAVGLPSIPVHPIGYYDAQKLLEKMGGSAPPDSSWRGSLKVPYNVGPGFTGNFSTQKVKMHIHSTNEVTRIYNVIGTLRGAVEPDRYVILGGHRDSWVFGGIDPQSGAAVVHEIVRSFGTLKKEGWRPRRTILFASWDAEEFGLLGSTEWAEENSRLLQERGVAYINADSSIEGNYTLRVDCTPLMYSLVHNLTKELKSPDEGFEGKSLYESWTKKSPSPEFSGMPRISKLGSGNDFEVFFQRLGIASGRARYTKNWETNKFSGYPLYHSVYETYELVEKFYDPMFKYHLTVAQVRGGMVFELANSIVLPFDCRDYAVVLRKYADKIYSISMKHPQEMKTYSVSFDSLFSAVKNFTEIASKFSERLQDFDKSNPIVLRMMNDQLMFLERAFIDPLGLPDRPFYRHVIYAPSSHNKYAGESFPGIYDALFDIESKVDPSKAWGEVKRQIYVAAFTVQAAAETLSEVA

Structure (SMILES): O=C([O-])CN1CCN(CC(=O)[O-])CCN(CC(=O)NCC2CCC(C(=O)NC(Cc3cnc4ccccc4c3)C(=O)NCCCCC(NC(=O)NC(CCC(=O)O)C(=O)O)C(=O)O)CC2)CCN(CC(=O)O)CC1.[68Ga+3] (centres unmarked) [[^68Ga]Ga-PSMA-Q]
Uptake Blood, Mean ([1]; 10 min p.i.): 2.62 ID%/g
Uptake Bone, Mean ([1]; 10 min p.i.): 0.72 ID%/g
Uptake Heart, Mean ([1]; 10 min p.i.): 2.07 ID%/g
Uptake Kidney, Mean ([1]; 10 min p.i.): 8.79 ID%/g
Uptake Liver, Mean ([1]; 10 min p.i.): 2.13 ID%/g
Uptake Lung, Mean ([1]; 10 min p.i.): 1.10 ID%/g
Uptake Muscle, Mean ([1]; 10 min p.i.): 0.70 ID%/g
Uptake Spleen, Mean ([1]; 10 min p.i.): 2.16 ID%/g
Uptake Tumor (22Rv1), Mean ([1]; 10 min p.i.): 1.86 ID%/g
Uptake Blood, Mean ([1]; 30 min p.i.): 1.04 ID%/g
Uptake Bone, Mean ([1]; 30 min p.i.): 0.22 ID%/g
Uptake Heart, Mean ([1]; 30 min p.i.): 0.98 ID%/g
Uptake Kidney, Mean ([1]; 30 min p.i.): 5.91 ID%/g
Uptake Liver, Mean ([1]; 30 min p.i.): 1.14 ID%/g
Uptake Lung, Mean ([1]; 30 min p.i.): 0.76 ID%/g
Uptake Muscle, Mean ([1]; 30 min p.i.): 0.21 ID%/g
Uptake Spleen, Mean ([1]; 30 min p.i.): 1.73 ID%/g
Uptake Tumor (22Rv1), Mean ([1]; 30 min p.i.): 2.98 ID%/g
Uptake Blood, Mean ([1]; 60 min p.i.): 0.31 ID%/g
Uptake Bone, Mean ([1]; 60 min p.i.): 0.21 ID%/g
Uptake Heart, Mean ([1]; 60 min p.i.): 0.08 ID%/g
Uptake Liver, Mean ([1]; 60 min p.i.): 0.70 ID%/g
Uptake Lung, Mean ([1]; 60 min p.i.): 0.33 ID%/g
Uptake Muscle, Mean ([1]; 60 min p.i.): 0.13 ID%/g
Uptake Spleen, Mean ([1]; 60 min p.i.): 0.35 ID%/g
Uptake Tumor (22Rv1), Mean ([1]; 60 min p.i.): 4.06 ± 0.36 ID%/g
Uptake Kidney, Mean [1, 8]: 2.46 ID%/g
Uptake Tumor (22Rv1), Mean [1, 8]: 4.06 ID%/g
Tumor-to-kidney (T/K) ratio [1, 9]: 1.60 ± 0.08
Tumor-to-muscle (T/M) ratio [1, 9]: 31.44 ± 2.09
Clearance profile in the kidneys ([1]; within 60 min p.i.): washed out rapidly from the kidneys
Log p pH = 7.4 [2]: −3.24 ± 0.21
SUVmax of tumor ([3]; 22Rv1 tumor, 7.4 MBq): 0.97 ± 0.24
Tumor-to-muscle ratio (micro-PET) ([3]; 22Rv1 tumor-bearing mice): 59.33 ± 5.72
Uptake in 22Rv1 cells [4]: 3.75 ± 0.35 IA%/10^6
Survival ([5]; 37 MBq in 150 μL, 14 days): did not die within 14 days
Routine blood tests and H&E staining of the main organs vs control ([5]; 37 MBq in 150 μL, vs saline): no significant differences
Acute radiotoxicity-related adverse events ([5]; toxicity experiments in mice): no acute radiotoxicity-related adverse events were observed
Elimination half-life [6]: 17.86 ± 1.23 min

Ki [7]: 2.89 ± 1.07 nM
Structure (SMILES): O=C(O)CC[C@H](NC(=O)N[C@@H](CCCCNC(=O)[C@H](Cc1ccc2ccccc2c1)NC(=O)[C@H]1CC[C@H](CNC(=O)CN2CCN(CC(=O)O)CCN(CC(=O)O)CCN(CC(=O)O)CC2)CC1)C(=O)O)C(=O)O [PSMA-617, reference compound]

Structure (SMILES): O=C(O)CCC(NC(=O)NC(CCCCNC(=O)C(Cc1cc2ccc3cccc4ccc(c1)c2c34)NC(=O)C1CCC(CNC(=O)CN2CCN(CC(=O)O)CCN(CC(=O)O)CCN(CC(=O)O)CC2)CC1)C(=O)O)C(=O)O (centres unmarked) [PSMA-P]
Ki [7]: 42.4 ± 2.11 nM
